Source: patent US10053417B2, “Neprilysin inhibitors” (THERAVANCE BIOPHARMA R&D IP, LLC, priority 2013, dated 2018)

Target: T1, human NEP (Homo sapiens, UniProt P08473)
T1 construct: purchased R&D Systems, Minneapolis, Minn; 1182-ZN
Assay: In vitro enzyme inhibition assay, inhibitor potency at human NEP (Assay 1)
Format: biochemical
Details: recombinant human NEP; fluorogenic peptide substrate 10 μM; 37° C.; values given as ranges
Description: The inhibitory activities of compounds at human and rat neprilysin (EC 3.4.24.11; NEP) and human angiotensin converting enzyme (ACE) were determined using in vitro assays as described below.
Recombinant human NEP and recombinant human ACE were obtained commercially (R&D Systems, Minneapolis, Minn., catalog numbers 1182-ZN and 929-ZN, respectively). The fluorogenic peptide substrate Mca-D-Arg-Arg-Leu-Dap-(Dnp)-OH (Medeiros et al. (1997) Braz. J. Med. Biol. Res. 30:1157-62; Anaspec, San Jose, Calif.) and Abz-Phe-Arg-Lys(Dnp)-Pro-OH (Araujo et al. (2000) Biochemistry 39:8519-8525; Bachem, Torrance, Calif.) were used in the NEP and ACE assays respectively.
The assays were performed in 384-well white opaque plates at 37° C. using the fluorogenic peptide substrates at a concentration of 10 μM in Assay Buffer (NEP: 50 mM HEPES, pH 7.5, 100 mM NaCl, 0.01% polyethylene glycol sorbitan monolaurate (Tween-20), 10 μM ZnSO4; ACE: 50 mM HEPES, pH 7.5, 100 mM NaCl, 0.01% Tween-20, 1 μM ZnSO4).
Test compounds were assayed over the range of concentrations from […] to 20 μM. Test compounds were added to the enzymes and incubated for 30 minute at 37° C. prior to initiating the reaction by the addition of substrate. Reactions were terminated after 20 minutes of incubation at 37° C. by the addition of glacial acetic acid to a final concentration of 3.6% (v/v).
Plates were read on a fluorometer with excitation and emission wavelengths set to 320 nm and 405 nm, respectively. Inhibition constants were obtained by nonlinear regression of the data using the equation (GraphPad Software, Inc., San Diego, Calif.): ν=ν0/[1+(I/K′)] where ν is the reaction rate, ν0 is the uninhibited reaction rate, I is the inhibitor concentration and K′ is the apparent inhibition constant.
Compounds of the invention were tested in this assay and found to have pKi values at human NEP as follows.

T1 sequence (P08473 52-750 limits assumed): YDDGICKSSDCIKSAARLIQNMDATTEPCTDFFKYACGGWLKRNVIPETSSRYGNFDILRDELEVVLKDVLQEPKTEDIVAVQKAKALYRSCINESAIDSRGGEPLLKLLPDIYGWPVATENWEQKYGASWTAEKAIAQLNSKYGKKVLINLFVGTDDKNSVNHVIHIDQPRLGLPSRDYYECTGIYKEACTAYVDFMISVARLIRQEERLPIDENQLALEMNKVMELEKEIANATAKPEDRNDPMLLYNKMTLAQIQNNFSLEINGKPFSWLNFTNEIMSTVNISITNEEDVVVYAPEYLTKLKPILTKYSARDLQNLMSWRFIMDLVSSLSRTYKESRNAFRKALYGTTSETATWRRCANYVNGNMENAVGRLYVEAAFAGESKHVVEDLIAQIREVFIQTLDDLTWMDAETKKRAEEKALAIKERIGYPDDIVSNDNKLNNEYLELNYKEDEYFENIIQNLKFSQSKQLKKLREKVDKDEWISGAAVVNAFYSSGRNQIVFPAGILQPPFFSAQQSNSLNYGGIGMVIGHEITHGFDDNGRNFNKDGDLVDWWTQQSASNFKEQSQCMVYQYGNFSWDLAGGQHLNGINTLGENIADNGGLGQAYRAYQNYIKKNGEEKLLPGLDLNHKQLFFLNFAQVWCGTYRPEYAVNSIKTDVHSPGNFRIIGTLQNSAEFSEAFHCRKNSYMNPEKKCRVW

SMILES	Ki [nM]
O=C(NNC(=O)c1ccncc1)C(=O)N[C@H](Cc1ccc(-c2cccc(Cl)c2)cc1)C[C@@H](O)C(=O)O [Example 8-4, (2R,4R)-5-(3′-Chlorobiphenyl-4-yl)-2-hydroxy-4-{2-oxo-2-[N′-(pyridine-4-carbonyl)-hydrazino]acetylamino}pentanoic acid]	1 to 10
O=C(NNc1ccccc1Cl)C(=O)N[C@H](Cc1ccc(-c2cccc(Cl)c2)cc1)C[C@@H](O)C(=O)O [Example 6-7, (2R,4R)-5-(3′-Chlorobiphenyl-4-yl)-4-{[N′-(2-chloro-phenyl)-hydrazinooxalyl]-amino}-2-hydroxypentanoic acid]	1 to 10
O=C(N[C@H](Cc1ccc(-c2cccc(Cl)c2)cc1)C[C@@H](O)C(=O)O)C1CCCCO1 (stereo partly drawn) [Example 9, (2R,4R)-5-(3′-Chlorobiphenyl-4-yl)-2-hydroxy-4-[(tetrahydropyran-2-carbonyl)amino]pentanoic Acid]	1 to 10
O=C(NNc1ccc(Cl)cc1)C(=O)N[C@H](Cc1ccc(-c2cccc(Cl)c2)cc1)C[C@@H](O)C(=O)O [Example 6-13, (2R,4R)-5-(3′-Chlorobiphenyl-4-yl)-4-{[N′-(4-chloro-phenyl)-hydrazinooxalyl]-amino}-2-hydroxypentanoic acid]	1 to 10
CNNC(=O)C(=O)N[C@H](Cc1ccc(-c2cccc(Cl)c2)cc1)C[C@@H](O)C(=O)O [Example 6-1, (2R,4R)-5-(3′-Chlorobiphenyl-4-yl)-2-hydroxy-4-[(N′-methylhydrazinooxalyl)-amino]pentanoic acid]	10 to 31.6
O=C(N[C@H](Cc1ccc(-c2cccc(Cl)c2)cc1)C[C@@H](O)C(=O)O)C(=O)N1CCC[C@@H]1CO [Example 4-16, (2R,4R)-5-(3′-Chlorobiphenyl-4-yl)-2-hydroxy-4-[2-((R)-2-hydroxymethyl-pyrrolidin-1-yl)-2-oxo-acetylamino]pentanoic acid]	1 to 10
O=C(NNC(=O)c1cccnc1)C(=O)N[C@H](Cc1ccc(-c2cccc(Cl)c2)cc1)C[C@@H](O)C(=O)O [Example 8-3, (2R,4R)-5-(3′-Chlorobiphenyl-4-yl)-2-hydroxy-4-{2-oxo-2-[N′-(pyridine-3-carbonyl)-hydrazino]acetylamino}pentanoic acid]	1 to 10
O=C(N[C@H](Cc1ccc(-c2cccc(Cl)c2)cc1)C[C@@H](O)C(=O)O)C(=O)N1CCOC(CO)C1 (stereo partly drawn) [Example 4-43, (2R,4R)-5-(3′-Chlorobiphenyl-4-yl)-2-hydroxy-4-[2-(2-hydroxymethyl-morpholin-4-yl)-2-oxo-acetylamino]pentanoic acid]	1 to 10
O=C(N[C@H](Cc1ccc(-c2cccc(Cl)c2)cc1)C[C@@H](O)C(=O)O)C(=O)N1CCC[C@H]1CO [Example 3, (2R,4R)-5-(3′-Chlorobiphenyl-4-yl)-2-hydroxy-4-[2-((S)-2-hydroxymethylpyrrolidin-1-yl)-2-oxo-acetylamino]pentanoic Acid]	≤ 1
O=C(N[C@H](Cc1ccc(-c2cccc(Cl)c2)cc1)C[C@@H](O)C(=O)O)C(=O)N1CC(O)CO1 (stereo partly drawn) [Example 4-49, (2R,4R)-5-(3′-Chlorobiphenyl-4-yl)-2-hydroxy-4-[2-(4-hydroxyisoxazolidin-2-yl)-2-oxo-acetylamino]pentanoic acid]	1 to 10
O=C(COc1ccc(O)cc1)N[C@H](Cc1ccc(-c2cccc(Cl)c2)cc1)C[C@@H](O)C(=O)O [Example 10-8, (2R,4R)-5-(3′-Chlorobiphenyl-4-yl)-2-hydroxy-4-[2-(4-hydroxyphenoxy)-acetylamino]-pentanoic acid]	10 to 31.6
O=C(Cc1ccccc1)C(=O)N[C@H](Cc1ccc(-c2cccc(Cl)c2)cc1)C[C@@H](O)C(=O)O [Example 2-2, (2R,4R)-5-(3′-Chloro-biphenyl-4-yl)-2-hydroxy-4-(2-oxo-3-phenyl-propionylamino)-pentanoic acid]	1 to 10
CON(C)C(=O)C(=O)N[C@H](Cc1ccc(-c2cccc(Cl)c2)cc1)C[C@@H](O)C(=O)O [Example 4-12, (2R,4R)-5-(3′-Chlorobiphenyl-4-yl)-2-hydroxy-4-[(methoxymethylaminooxalyl)-amino]pentanoic acid]	1 to 10
O=C(NC1CONC1=O)C(=O)N[C@H](Cc1ccc(-c2cccc(Cl)c2)cc1)C[C@@H](O)C(=O)O (stereo partly drawn) [Example 4-7, (2R,4R)-5-(3′-Chlorobiphenyl-4-yl)-2-hydroxy-4-[(3-oxo-isoxazolidin-4-ylaminooxalyl)-amino]pentanoic acid]	1 to 10
C[C@@H]1CO[C@@H](C)CN1C(=O)C(=O)N[C@H](Cc1ccc(-c2cccc(Cl)c2)cc1)C[C@@H](O)C(=O)O [Example 4-46, (2R,4R)-5-(3′-Chlorobiphenyl-4-yl)-4-[2-((2S,5R)-2,5-dimethylmorpholin-4-yl)-2-oxo-acetylamino]-2-hydroxypentanoic acid]	1 to 10
COCC1CCN(C(=O)C(=O)N[C@H](Cc2ccc(-c3cccc(Cl)c3)cc2)C[C@@H](O)C(=O)O)CC1 [Example 4-19, (2R,4R)-5-(3′-Chlorobiphenyl-4-yl)-2-hydroxy-4-[2-(4-methoxymethyl-piperidin-1-yl)-2-oxo-acetylamino]pentanoic acid]	10 to 31.6
O=C(N[C@H](Cc1ccc(-c2cccc(Cl)c2)cc1)C[C@@H](O)C(=O)O)C(=O)N1CCCC(CCO)C1 (stereo partly drawn) [Example 4-32, (2R,4R)-5-(3′-Chlorobiphenyl-4-yl)-2-hydroxy-4-{2-[3-(2-hydroxyethyl)-piperidin-1-yl]-2-oxo-acetylamino}pentanoic acid]	10 to 31.6
O=C(N[C@H](Cc1ccc(-c2cccc(Cl)c2)cc1)C[C@@H](O)C(=O)O)C(=O)N1CCCC[C@H]1CO [Example 4-26, (2R,4R)-5-(3′-Chlorobiphenyl-4-yl)-2-hydroxy-4-[2-((S)-2-hydroxymethyl-piperidin-1-yl)-2-oxo-acetylamino]pentanoic acid]	≤ 1
O=C(NNc1ccncc1)C(=O)N[C@H](Cc1ccc(-c2cccc(Cl)c2)cc1)C[C@@H](O)C(=O)O [Example 6-3, (2R,4R)-5-(3′-Chlorobiphenyl-4-yl)-2-hydroxy-4-[(N′-pyridin-4-yl-hydrazino-oxalyl)-amino]pentanoic acid]	1 to 10
COc1cccc(OCC(=O)N[C@H](Cc2ccc(-c3cccc(Cl)c3)cc2)C[C@@H](O)C(=O)O)c1 [Example 10-9, (2R,4R)-5-(3′-Chlorobiphenyl-4-yl)-2-hydroxy-4-[2-(3-methoxyphenoxy)-acetylamino]-pentanoic acid]	10 to 31.6
COCC(=O)N[C@H](Cc1ccc(-c2cccc(Cl)c2)cc1)C[C@@](C)(CO)C(=O)O [Example 11, (2S,4R)-5-(3′-Chlorobiphenyl-4-yl)-2-hydroxymethyl-4-(2-methoxy-acetylamino)-2-methylpentanoic Acid]	1 to 10
O=C(NNc1ccc(Br)cc1)C(=O)N[C@H](Cc1ccc(-c2cccc(Cl)c2)cc1)C[C@@H](O)C(=O)O [Example 6-14, (2R,4R)-4-{[N′-(4-Bromophenyl)-hydrazinooxalyl]-amino}-5-(3′-chlorobiphenyl-4-yl)-2-hydroxypentanoic acid]	1 to 10
O=C(NNc1ccc(F)cc1)C(=O)N[C@H](Cc1ccc(-c2cccc(Cl)c2)cc1)C[C@@H](O)C(=O)O [Example 6-12, (2R,4R)-5-(3′-Chlorobiphenyl-4-yl)-4-{[N′-(4-fluoro-phenyl)-hydrazinooxalyl]-amino}-2-hydroxypentanoic acid]	1 to 10
